From US11331299B2, “Medicinal use of serrulatane diterpenes” (The University of Sydney, priority 2016, dated 2022)
pEC50, pIC50: −log10 of the molar value. Like-named read-outs stand apart in the source and are kept apart here.

Tested on: 280 human cancer cell lines
Test: OncoPanel cell proliferation assay (10-day)
Assay type: cell-based
Conditions: Homo sapiens; for pEC50: read-out: Cell Count EC50; for GI50: read-out: Cell Count GI50; for pIC50: read-out: Cell Count IC50
[1] = C-4-II, C-4 II, Female GU - Cervix
[2] = C-33-A, C-33A, Female GU - Cervix
[3] = CAL-62, CAL-62, Endocrine - Thyroid
[4] = CCF-STTG1, CCF-STTG1, CNS - Glioma
[5] = CGTH-W-1, CGTH-W-1, Endocrine - Thyroid
[6] = CHP-212, CHP-212, CNS - Neuroblastoma
[7] = COLO-320-HSR, Colo 320 HSR, Colon
[8] = COLO-829, COLO 829, Skin (Melanoma)
[9] = COR-L105, COR-L105, Lung - NSCLC
[10] = Ca-Ski, Ca Ski, Female GU - Ovary

## CC(C)=CCC[C@H](CO)[C@@H]1CC[C@@H](C)c2c1cc(C)c(O)c2O [Compound 1, 7,8,18-trihydroxyserrulat-14-ene]
BT-474, BT474, Breast
  pEC50: 5.27
  GI50: 4.95 µM
  pIC50: 5.26
BT-549, BT-549, Breast
  pEC50: 5.50
  GI50: 3.12 µM
  pIC50: 5.50
BV-173, BV-173, Leukemia
  pEC50: 5.42
  GI50: 3.79 µM
  pIC50: 5.42
BXPC-3, BxPC-3, Pancreas
  pEC50: 5.48
  GI50: 3.29 µM
  pIC50: 5.48
BeWo, Placenta
  pEC50: 5.04
  GI50: 8.92 µM
  pIC50: 5.04
C32, Skin (Melanoma)
  pEC50: 5.68
  GI50: 1.81 µM
  pIC50: 5.68
[1]
  pEC50: 5.96
  GI50: 1.09 µM
  pIC50: 5.96
[2]
  pEC50: 5.14
  GI50: 7.08 µM
  pIC50: 5.14
CA46, CA46, Lymphoma
  pEC50: 5.64
  GI50: 2.26 µM
  pIC50: 5.64
CAKI-1, Caki-1, Kidney
  pEC50: 5.54
  GI50: 2.75 µM
  pIC50: 5.54
CAKI-2, Caki-2, Kidney
  pEC50: 5.36
  GI50: 4.35 µM
  pIC50: 5.36
CAL-27, Cal 27, Head and Neck
  pEC50: 5.67
  GI50: 2.15 µM
  pIC50: 5.67
[3]
  pEC50: 5.77
  GI50: 1.69 µM
  pIC50: 5.77
CAMA-1, CAMA-1, Breast
  pEC50: 5.45
  GI50: 3.4 µM
  pIC50: 5.45
CAPAN-1, Capan-1, Pancreas
  pEC50: < 4.52
  GI50: > 30 µM
  pIC50: < 4.52
[4]
  pEC50: 5.24
  GI50: 5.24 µM
  pIC50: 5.18
CCRF-CEM, CCRFCEM, Leukemia
  pEC50: 5.33
  GI50: 4.71 µM
  pIC50: 5.33
CEM/C1, CEM-C1, Leukemia
  pEC50: 5.71
  GI50: 1.95 µM
  pIC50: 5.71
CFPAC-1, CFPAC-1, Pancreas
  pEC50: 5.44
  GI50: 3.65 µM
  pIC50: 5.44
[5]
  pEC50: 5.92
  GI50: 1.2 µM
  pIC50: 5.92
CHL-1, CHL-1, Skin (Melanoma)
  pEC50: 5.86
  GI50: 1.36 µM
  pIC50: 5.86
[6]
  pEC50: 5.84
  GI50: 1.41 µM
  pIC50: 5.84
CML-T1, CML-T1, Leukemia
  pEC50: 5.71
  GI50: 1.93 µM
  pIC50: 5.71
COLO 201, Colo 201, Colon
  pEC50: 6.04
  GI50: 0.92 µM
  pIC50: 6.04
COLO 205, Colo 205, Colon
  pEC50: 5.88
  GI50: 1.31 µM
  pIC50: 5.88
COLO 320DM, Colon
  pEC50: 5.49
  GI50: 3.18 µM
  pIC50: 5.49
[7]
  pEC50: 5.51
  GI50: 3.13 µM
  pIC50: 5.50
[8]
  pEC50: 6.17
  GI50: 0.62 µM
  pIC50: 6.17
COR-L23, COR-L23, Lung - NSCLC
  pEC50: 5.14
  GI50: 7.14 µM
  pIC50: 5.14
[9]
  pEC50: 5.84
  GI50: 1.42 µM
  pIC50: 5.84
CRO-AP2, CRO-AP2, Lymphoma
  pEC50: 5.24
  GI50: 5.66 µM
  pIC50: 5.24
[10]
  pEC50: 5.28
  GI50: 5.24 µM
  pIC50: 5.28
Calu-1, Calu1, Lung - NSCLC
  pEC50: 5.51
  GI50: 3.07 µM
  pIC50: 5.51
Calu-6, Calu6, Lung - NSCLC
  pEC50: 5.03
  GI50: 8.59 µM
